In patent US20190262327A1, “COMBINATION OF A BACE INHIBITOR AND AN ANTIBODY OR ANTIGEN-BINDING FRAGMENT FOR THE TREATMENT OF A DISORDER ASSOCIATED WITH THE ACCUMULATION OF AMYLOID BETA” (ASTRAZENECA AB, priority 2016, published 2019):

Tested on: sAPPβ release in SH-SY5Y cells
Test: sAPPβ Release Assay
Assay type: cell-based
Conditions: Homo sapiens, 17 h
Experimental: Thaw cells and seed at a conc. of around 10000 cells/well in DMEM/F-12 with Glutamax, 10% FCS and 1% non-essential amino acids to a 384-well tissue culture treated plate, […] cell susp/well. The cell plates were then incubated for 7-24 h at 37° C., 5% CO2. The cell medium was removed, followed by addition of 30 μL compound diluted in DMEM/F-12 with Glutamax, 10% FCS, 1% non-essential amino acids and 1% PeSt to a final conc. of 1% DMSO. […] Meso Scale Discovery (MSD) plates were used for the detection of sAPPβ release. MSD sAPPβ plates were blocked in 1% BSA in Tris wash buffer (40 μL/well) for 1 h on shake at r.t. and washed 1 time in Tris wash buffer (40 μL/well). 20 μL of medium was transferred to the pre-blocked and washed MSD sAPPβ microplates, and the cell plates were further used in an ATP assay to measure cytotoxicity. The MSD plates were incubated with shaking at r.t. for 2 h and the media discarded. 10 μL detection antibody was added (1 nM) per well followed by incubation with shaking at r.t. for 2 h and then discarded. 40 μL Read Buffer was added per well and the plates were read in a SECTOR Imager.

IC50: 0.1 nM
Structure (SMILES): CC#Cc1cncc(-c2ccc3c(c2)[C@@]2(N=C(C)C(N)=N2)[C@]2(CC[C@H](OC)CC2)C3)c1 [(1r,1′R,4R)-4-methoxy-5″-methyl-6′-[5-(prop-1-yn-1-yl)pyridin-3-yl]-3′H-dispiro[cyclohexane-1,2′-indene-1′2″-imidazol]-4″-amine]
